One block for each compound: values may come before it. Bridge positions count the residues as written; N and C are the ends. Square brackets hold non-standard residues; d marks the D form. Peptide text beside a SMILES is read from it. * marks the point of attachment. DOTA = O=C(O)CN1CCN(CC(=O)O)CCN(CC(=O)*)CCN(CC(=O)O)CC1; Trp(1-CH2COOH) = N[C@@H](Cc1cn(CC(=O)O)c2ccccc12)C(=O)O; Hyp = O=C(O)[C@@H]1C[C@@H](O)CN1; NMeNle = CCCC[C@H](NC)C(=O)O; NMeA = CN[C@@H](C)C(=O)O
Columns and labels:
[1] = Biodistribution of [^68Ga]Ga-DK385; assay type: in vivo, mice; conditions: mouse, iv, 50 uCi, total radioactivity
[2] = cited from earlier work
[3] = system: BFTC909 xenografts; experiment: [^68Ga]Ga-DK223 PET-CT of BFTC909 xenografts after aPD-L1 treatment; assay type: in vivo, NSG mice
[4] = system: BFTC909 cells; experiment: [^68Ga]Ga-DK223 uptake in BFTC909 cells with and without aPD-L1 mAbs; assay type: cell-based, human; conditions: 60 nM mAb
[5] = system: BFTC909 xenografts; assay type: in vivo, NSG mice; conditions: 10 mg/kg
[6] = system: MDAMB231, BFTC909, SUM149, and SCaBER cells; experiment: In vitro binding assay, blocking with non-radioactive DK223; assay type: cell-based, human; conditions: 1 μM non-radioactive DK223; P<0.0001
[7] = target: Human PD-L1 Fc-tagged (Homo sapiens, UniProt Q9NZQ7); experiment: Surface plasmon resonance; assay type: binding; conditions: read-out: KD (affinity for PD-L1); SPR, Biacore T200, CM5 chip, 25°C, 1:1 kinetics model; n=3

- tissue to tissue ratio at 1 h ([1]; tumor and blood): 2.32 ± 0.38
- tissue to tissue ratio at 1 h ([1]; tumor and muscle): 19.9 ± 2.15
- tissue uptake at 1 h ([1]; tumor): 8.5 ± 1.67 %ID/g
Compound: CCCC[C@H]1C(=O)N(C)[C@@H](CCCC)C(=O)N[C@@H](CCCCNC(=O)CCC(C(=O)O)N2CCN(CC(=O)O)CCN(CC(=O)O)CCN(CC(=O)O)CC2)C(=O)N[C@H](C(=O)NCC(N)=O)CSCC(=O)N[C@@H](Cc2ccc(O)cc2)C(=O)N(C)[C@@H](C)C(=O)N[C@@H](CC(N)=O)C(=O)N2CCC[C@H]2C(=O)N[C@@H](Cc2c[nH]cn2)C(=O)N[C@@H](CCC(=O)O)C(=O)N2C[C@H](O)C[C@H]2C(=O)N[C@@H](Cc2c[nH]c3ccccc23)C(=O)N[C@@H](CO)C(=O)N[C@@H](Cc2cn(CC(=O)O)c3ccccc23)C(=O)N1C (stereo partly drawn) [[^68Ga]Ga-DK385, metal not drawn]

Compound: avelumab
- half-life [2]: 146 h
- [^68Ga]Ga-DK223 uptake in tumors (PET) after mAb treatment ([3]; 24 h after 10 mg/kg mAb i.v., PET 60 min after tracer): significantly lower uptake
- [^68Ga]Ga-DK223 uptake in tumors (PET) after mAb treatment ([3]; 72 h after 10 mg/kg mAb i.v., avelumab compared with durvalumab): increased
- [^68Ga]Ga-DK223 uptake in BFTC909 cells in presence of mAb [4]: less than 1%
- reduction of [^68Ga]Ga-DK223 tumor uptake versus saline ([5]; 24 h treatment, P<0.0001): more than 80%
- accessible PD-L1 levels ([5]; 120 h of treatment, tumor %ID/g as fraction of saline group): increase in accessible PD-L1 levels
- [^68Ga]Ga-DK223 tumor uptake versus saline controls ([5]; 120 h treatment): no significant differences

- Kd [7]: 1.01 ± 0.83 nM
Compound: CCCC[C@H]1C(=O)N(C)[C@@H](CCCC)C(=O)N[C@@H](CCCCNC(=O)CN2CCN(CC(=O)O)CCN(CC(=O)O)CCN(CC(=O)O)CC2)C(=O)N[C@H](C(=O)NCC(N)=O)CSCC(=O)N[C@@H](Cc2ccc(O)cc2)C(=O)N(C)[C@@H](C)C(=O)N[C@@H](CC(N)=O)C(=O)N2CCC[C@H]2C(=O)N[C@@H](Cc2c[nH]cn2)C(=O)N[C@@H](CCC(=O)O)C(=O)N2C[C@H](O)C[C@H]2C(=O)N[C@@H](Cc2c[nH]c3ccccc23)C(=O)N[C@@H](CO)C(=O)N[C@@H](Cc2cn(CC(=O)O)c3ccccc23)C(=O)N1C [DK223] ({CH2CO}-Y[NMeA]NPHE[Hyp]WS[Trp(1-CH2COOH)][NMeNle][NMeNle]K(DOTA)CG-NH2; thioether N-14)
- [^68Ga]Ga-DK223 uptake in cells incubated with non-radioactive DK223 [6]: significantly reduced
